In ChEMBL document CHEMBL3817800, “Dihydropyrimidones: As novel class of β-glucuronidase inhibitors” (Bioorg Med Chem, 2016):
pIC50: −log10 of the molar value.

Target: T1, Beta-glucuronidase (Bos taurus, UniProt A3KMY8)
T1 sequence (A3KMY8 whole entry): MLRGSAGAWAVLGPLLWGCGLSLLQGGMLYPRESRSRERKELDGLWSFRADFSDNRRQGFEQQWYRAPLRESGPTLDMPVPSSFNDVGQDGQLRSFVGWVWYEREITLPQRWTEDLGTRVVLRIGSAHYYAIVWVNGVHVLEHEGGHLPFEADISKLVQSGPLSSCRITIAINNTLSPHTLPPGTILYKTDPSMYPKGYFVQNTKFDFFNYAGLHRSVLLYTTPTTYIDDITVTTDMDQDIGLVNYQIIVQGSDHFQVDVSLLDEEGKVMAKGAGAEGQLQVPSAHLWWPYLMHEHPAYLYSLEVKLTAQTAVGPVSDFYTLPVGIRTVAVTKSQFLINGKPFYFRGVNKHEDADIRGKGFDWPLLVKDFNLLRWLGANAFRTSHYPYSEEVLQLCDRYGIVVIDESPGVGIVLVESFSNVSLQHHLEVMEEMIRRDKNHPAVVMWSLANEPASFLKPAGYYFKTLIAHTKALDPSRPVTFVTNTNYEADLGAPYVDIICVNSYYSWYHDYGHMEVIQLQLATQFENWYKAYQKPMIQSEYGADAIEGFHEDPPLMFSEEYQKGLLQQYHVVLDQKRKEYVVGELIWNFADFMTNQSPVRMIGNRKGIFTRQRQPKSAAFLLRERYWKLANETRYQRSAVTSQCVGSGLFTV
Experiment: Inhibition of bovine liver beta-glucuronidase assessed as p-nitrophenol formation preincubated for 30 mins followed by p-nitrophenyl-beta-D-glucuronide addition by spectrophotometric method
Conditions: not given; call rule not given here

| IC50 | Structure (SMILES) |
| --- | --- |
| Not Active | COC(=O)C1=C(C)NC(=O)NC1c1ccc(OC)c(OC)c1 (stereo not given) |
| Not Active | COC(=O)C1=C(C)NC(=O)NC1c1ccc2ccccc2c1 (stereo not given) |
| Not Active | COC(=O)C1=C(C)NC(=O)NC1c1cccc(OCc2ccccc2)c1 (stereo not given) |
| Not Active | COC(=O)C1=C(C)NC(=O)NC1c1cc(Br)c(OC)c(OC)c1 (stereo not given) |
| Not Active | COC(=O)C1=C(C)NC(=O)NC1c1ccc(C(C)C)cc1 (stereo not given) |
| Not Active | COC(=O)C1=C(C)NC(=O)NC1c1ccc(OC)c(OCc2ccccc2)c1 (stereo not given) |
| Not Active | COC(=O)C1=C(C)NC(=O)NC1c1ccccc1 (stereo not given) |
| Not Active | COC(=O)C1=C(C)NC(=O)NC1c1ccccc1OCc1ccccc1 (stereo not given) |

Same assay, conditions: read-out: IC50

| Structure (SMILES) | pIC50 |
| --- | --- |
| COC(=O)C1=C(C)NC(=O)NC1c1ccc(F)c(OC)c1 (stereo not given) | 4.65 |
| COC(=O)C1=C(C)NC(=O)NC1c1ccc(Cl)cc1 (stereo not given) | 4.47 |
| COC(=O)C1=C(C)NC(=O)NC1c1c(Cl)cccc1Cl (stereo not given) | 4.62 |
| COC(=O)C1=C(C)NC(=O)NC1c1cccc(OC)c1OC (stereo not given) | 4.27 |
| COC(=O)C1=C(C)NC(=O)NC1c1ccc(OC)cc1F (stereo not given) | 4.74 |
| COC(=O)C1=C(C)NC(=O)NC1c1cc(OC)c(O)c(OC)c1 (stereo not given) | 4.47 |
| COC(=O)C1=C(C)NC(=O)NC1c1cc(OC)ccc1OC (stereo not given) | 4.21 |
| COC(=O)C1=C(C)NC(=O)NC1c1ccc(OC(C)=O)c(OC)c1 (stereo not given) | 4.55 |
| COC(=O)C1=C(C)NC(=O)NC1c1ccc(O)c(Cl)c1 (stereo not given) | 4.57 |
| COC(=O)C1=C(C)NC(=O)NC1c1cccc2ccccc12 (stereo not given) | 4.32 |
| COC(=O)C1=C(C)NC(=O)NC1c1ccc([N+](=O)[O-])cc1 (stereo not given) | 4.31 |
| COC(=O)C1=C(C)NC(=O)NC1c1ccc(C(F)(F)F)cc1 (stereo not given) | 5.03 |
| COC(=O)C1=C(C)NC(=O)NC1c1ccc(N(C)C)cc1 (stereo not given) | 4.31 |

Now from value to molecule:

| pIC50 | Structure (SMILES) |
| --- | --- |
| 4.14 | CCOc1ccc(C2NC(=O)NC(C)=C2C(=O)OC)cc1 (stereo not given) |
| 4.35 | COC(=O)C1=C(C)NC(=O)NC1c1ccc(C)o1 (stereo not given) |
| 4.82 | COC(=O)C1=C(C)NC(=O)NC1c1cccc(O)c1 (stereo not given) |
| 4.28 | CCC1NC(=O)NC(C)=C1C(=O)OC (stereo not given) |
| 4.26 | COC(=O)C1=C(C)NC(=O)NC1CC(C)C (stereo not given) |
| 4.23 | COC(=O)C1=C(C)NC(=O)NC1c1ccc(OC)cc1 (stereo not given) |
| 4.48 | COC(=O)C1=C(C)NC(=O)NC1c1ccc(C)s1 (stereo not given) |
| 4.40 | COC(=O)C1=C(C)NC(=O)NC1c1ccco1 (stereo not given) |
| 4.23 | COC(=O)C1=C(C)NC(=O)NC1c1ccccc1OC (stereo not given) |
| 4.11 | CCCCC1NC(=O)NC(C)=C1C(=O)OC (stereo not given) |
| 4.33 | COC(=O)C1=C(C)NC(=O)NC1c1ccsc1 (stereo not given) |
| 4.19 | COC(=O)C1=C(C)NC(=O)NC1c1ccc(Br)cc1 (stereo not given) |
| 4.85 | COC(=O)C1=C(C)NC(=O)NC1c1ccccc1F (stereo not given) |
| 4.74 | COC(=O)C1=C(C)NC(=O)NC1c1cccs1 (stereo not given) |
| 4.35 | COC(=O)C1=C(C)NC(=O)NC1c1ccccc1Cl (stereo not given) |
| 4.75 | COC(=O)C1=C(C)NC(=O)NC1c1ccc(O)cc1 (stereo not given) |

Target: T2, Beta-glucuronidase (Bos taurus) (UniProt A3KMY8)
T2 sequence (whole entry): T1 sequence (A3KMY8 whole entry)
Experiment: Potency index, ratio of D-saccharic acid 1,4-lactone IC50 to compound IC50 for bovine liver beta-glucuronidase
Conditions: not given

| Ratio IC50 | Structure (SMILES) |
| --- | --- |
| 2 | COC(=O)C1=C(C)NC(=O)NC1c1c(Cl)cccc1Cl (stereo not given) |
| > 3 | COC(=O)C1=C(C)NC(=O)NC1c1cccc(O)c1 (stereo not given) |
| 5 | COC(=O)C1=C(C)NC(=O)NC1c1ccc(C(F)(F)F)cc1 (stereo not given) |
